From ChEMBL document CHEMBL1137061 (Bioorg Med Chem Lett, 2004)

What was measured:
Format in all cases: cell membranes, Membrane
[1] = biological target: Neuronal acetylcholine receptor subunit alpha-7 (Rattus norvegicus, UniProt Q05941)
[2] = biological target: Neuronal acetylcholine receptor; alpha4/beta2 (Rattus norvegicus, UniProt P09483+P12390); experiment: Inhibition of [3H]epibatidine binding to alpha 4 beta 2 nicotinic acetylcholine receptor of rat cortex membranes
[3] = biological target: Muscarinic acetylcholine receptor; experiment: Inhibition of [3H]N-methylscopolamine binding to muscarinic receptor of rat cortex membranes

Chain of Neuronal acetylcholine receptor subunit alpha-7 (Q05941 whole entry): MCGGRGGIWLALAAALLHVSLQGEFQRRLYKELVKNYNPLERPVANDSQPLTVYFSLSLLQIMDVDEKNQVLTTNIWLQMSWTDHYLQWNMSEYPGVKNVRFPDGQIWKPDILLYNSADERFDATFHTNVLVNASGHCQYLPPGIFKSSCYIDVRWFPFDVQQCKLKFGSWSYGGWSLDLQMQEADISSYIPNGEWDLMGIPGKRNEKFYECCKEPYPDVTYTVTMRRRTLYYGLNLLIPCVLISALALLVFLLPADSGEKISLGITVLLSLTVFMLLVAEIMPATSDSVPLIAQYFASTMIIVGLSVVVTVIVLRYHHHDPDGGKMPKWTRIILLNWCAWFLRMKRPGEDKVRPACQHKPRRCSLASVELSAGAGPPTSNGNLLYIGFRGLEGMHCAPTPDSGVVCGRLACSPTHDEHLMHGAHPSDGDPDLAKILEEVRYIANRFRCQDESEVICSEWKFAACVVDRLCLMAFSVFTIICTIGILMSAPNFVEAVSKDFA
Chain of Neuronal acetylcholine receptor; alpha4/beta2 (P09483 whole entry): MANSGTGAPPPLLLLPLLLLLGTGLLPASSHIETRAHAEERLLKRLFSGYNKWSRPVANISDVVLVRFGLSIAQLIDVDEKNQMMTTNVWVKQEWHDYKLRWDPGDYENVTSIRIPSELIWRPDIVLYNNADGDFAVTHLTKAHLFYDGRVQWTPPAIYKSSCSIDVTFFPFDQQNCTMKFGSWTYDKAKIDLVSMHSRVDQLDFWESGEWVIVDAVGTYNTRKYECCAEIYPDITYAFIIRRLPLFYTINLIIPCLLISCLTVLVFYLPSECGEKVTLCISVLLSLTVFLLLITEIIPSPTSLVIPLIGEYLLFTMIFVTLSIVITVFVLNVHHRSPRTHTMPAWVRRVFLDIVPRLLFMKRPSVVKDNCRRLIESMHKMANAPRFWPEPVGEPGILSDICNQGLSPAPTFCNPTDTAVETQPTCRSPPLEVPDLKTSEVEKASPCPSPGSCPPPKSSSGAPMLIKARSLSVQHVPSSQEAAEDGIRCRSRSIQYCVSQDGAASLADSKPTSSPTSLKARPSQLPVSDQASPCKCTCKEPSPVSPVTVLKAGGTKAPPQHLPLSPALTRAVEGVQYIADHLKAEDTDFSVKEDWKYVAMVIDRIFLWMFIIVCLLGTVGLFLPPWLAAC
Chain of Neuronal acetylcholine receptor; alpha4/beta2 (P12390 whole entry): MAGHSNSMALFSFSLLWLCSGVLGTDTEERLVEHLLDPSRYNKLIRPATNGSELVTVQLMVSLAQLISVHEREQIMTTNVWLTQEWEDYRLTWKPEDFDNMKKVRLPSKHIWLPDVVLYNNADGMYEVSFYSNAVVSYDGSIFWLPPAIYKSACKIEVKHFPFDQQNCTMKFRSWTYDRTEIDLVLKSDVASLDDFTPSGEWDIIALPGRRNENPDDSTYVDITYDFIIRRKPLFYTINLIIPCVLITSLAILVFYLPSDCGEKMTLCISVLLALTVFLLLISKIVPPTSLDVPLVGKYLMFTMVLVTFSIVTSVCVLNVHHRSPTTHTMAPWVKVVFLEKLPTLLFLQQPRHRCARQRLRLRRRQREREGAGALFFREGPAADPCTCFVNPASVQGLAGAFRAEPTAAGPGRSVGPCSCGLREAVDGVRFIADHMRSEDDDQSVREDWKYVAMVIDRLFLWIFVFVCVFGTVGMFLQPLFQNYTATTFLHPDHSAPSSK

## CC(C)O/N=C/[C@H]1CCCN1C
[1]
  Ki: 47 µM
[2]
  Ki: 5.5 µM

## CC(C)O/N=C\[C@@H]1CCCN1C
[2]
  Ki: 1.9 µM

## CC(C)O/N=C\[C@H]1CCCN1C
[2]
  Ki: 14.5 µM

## CC(C)=NOC[C@@H]1CCCN1C
[1]
  Ki: 49 µM
[3]
  Ki: > 50 µM
[2]
  Ki: 0.52 µM

## CC(C)=NO[C@@H]1CCCN(C)C1
[2]
  Ki: > 50 µM

## C/C=N\OC[C@H]1CCCN1C
[2]
  Ki: 5.79 µM

## CC(C)=NO[C@H]1CCCN(C)C1
[2]
  Ki: > 50 µM

## CC=NOC[C@@H]1CCCN1C
[1]
  Ki: > 50 µM
[3]
  Ki: > 50 µM
[2]
  Ki: 0.68 µM

## Cc1cc([C@@H]2CCCN2C)on1 [ABT-418]
[1]
  Ki: 1.2 µM
[2]
  Ki: 0.02 µM

## CC(C)O/N=C/[C@@H]1CCCN1C
[1]
  Ki: > 50 µM
[3]
  Ki: 17 µM

## C/C=N\OC[C@@H]1CCCN1C
[1]
  Ki: > 50 µM
[3]
  Ki: > 50 µM
